Results from the NIST ThermoML archive (doi:10.1021/je060243s).
Several values for one entry are separate records, joined by “and”; a condition that tells them apart may be missing. Equal values may be shown once.

Experiment: wn = mass fraction of the nth substance listed
Details: Liquid, Pulse-echo method, w2 = 0.5

FC(F)C(F)(F)F [pentafluoroethane] + FCF
speed of sound
Details	253.09 K	258.09 K	265.61 K	273.12 K	280.72 K	288.2 K
830 kPa	–	–	–	574.5 m/s	–	–
1000 kPa	–	656.5 m/s	–	–	–	–
1030 kPa	–	–	–	–	535.2 m/s	–
1060 kPa	–	–	–	–	535.5 m/s	–
1120 kPa	–	657.6 m/s	–	–	–	–
1150 kPa	–	–	–	–	536.9 m/s	–
1180 kPa	684.1 m/s	–	–	–	–	–
1190 kPa	–	–	618.9 m/s	–	–	–
1220 kPa	–	–	–	578.8 m/s	–	–
1260 kPa	684.8 m/s	658.8 m/s	–	–	538 m/s	–
1340 kPa	–	–	620 m/s	–	–	–
1350 kPa	–	–	–	–	–	496 m/s
1360 kPa	–	–	–	580.1 m/s	–	–
1380 kPa	685.8 m/s	659.7 m/s	–	–	539.4 m/s	–
1420 kPa	–	–	–	–	–	497.2 m/s
1480 kPa	–	–	–	–	–	498 m/s
1500 kPa	686.8 m/s	660.8 m/s and 661 m/s	621.6 m/s	581.6 m/s	540.9 m/s	–
1550 kPa	–	–	–	–	–	499 m/s
1620 kPa	687.7 m/s	–	–	–	–	–
1630 kPa	–	662.2 m/s	–	–	542.3 m/s	–
1750 kPa	688.8 m/s	663.1 m/s	623.8 m/s	584.2 m/s	543.8 m/s	–
2010 kPa	690.6 m/s	665.1 m/s	626.1 m/s	586.8 m/s	546.7 m/s	–
2250 kPa	692.6 m/s	667.1 m/s	628.3 m/s	589.4 m/s	549.6 m/s	–
2510 kPa	694.3 m/s	669.2 m/s	630.7 m/s	591.9 m/s	552.3 m/s	–
2750 kPa	696.4 m/s	671.4 m/s	633 m/s	594.1 m/s	555 m/s	–
3010 kPa	698.4 m/s	673.4 m/s	635.2 m/s	596.9 m/s	557.9 m/s	–
3500 kPa	702.3 m/s	677.1 m/s	639.4 m/s	601.6 m/s	563.2 m/s	–
4000 kPa	705 m/s	681.1 m/s	644 m/s	606.4 m/s	568.5 m/s	–
4500 kPa	709.5 m/s	685.3 m/s	648.1 m/s	611 m/s	573.7 m/s	–
5000 kPa	713.3 m/s	689.1 m/s	652.1 m/s	615.4 m/s	579 m/s	–
6010 kPa	720.6 m/s	696.6 m/s	660.6 m/s	624.4 m/s	588.6 m/s	–
7010 kPa	727.4 m/s	703.9 m/s	668.4 m/s	633.3 m/s	598.3 m/s	–
8000 kPa	734.2 m/s	711 m/s	676.1 m/s	641.5 m/s	607.1 m/s	–
9000 kPa	740.8 m/s	718.1 m/s	683.8 m/s	649.3 m/s	615.9 m/s	–
10000 kPa	747.5 m/s	724.8 m/s	691 m/s	657.6 m/s	624.5 m/s	–
12000 kPa	760.2 m/s	738.2 m/s	705.2 m/s	672.7 m/s	640.6 m/s	–
14000 kPa	772.5 m/s	751.2 m/s	718.9 m/s	687.3 m/s	656.1 m/s	–
16010 kPa	784.5 m/s	763.4 m/s	732.1 m/s	701.1 m/s	670.9 m/s	–
18000 kPa	795.3 m/s	775 m/s	744.4 m/s	714.5 m/s	684.9 m/s	–
20000 kPa	806.9 m/s	786.7 m/s	756.2 m/s	727 m/s	698.3 m/s	–
23000 kPa	822.9 m/s	803.2 m/s	773.6 m/s	745.4 m/s	717 m/s	–
26000 kPa	837.9 m/s	818.7 m/s	790.1 m/s	762.7 m/s	735.5 m/s	–
29010 kPa	852.8 m/s	833.7 m/s	806.2 m/s	779 m/s	752.6 m/s	–
32000 kPa	867.2 m/s	848.7 m/s	821.5 m/s	794.8 m/s	769.2 m/s	–
35000 kPa	880.5 m/s	862.6 m/s	835.5 m/s	809.6 m/s	785.1 m/s	–
40000 kPa	902.6 m/s	885 m/s	858.8 m/s	833.5 m/s	809.7 m/s	–
45000 kPa	923.6 m/s	906.3 m/s	880.8 m/s	856.4 m/s	833.1 m/s	–
50000 kPa	943.8 m/s	926.7 m/s	902 m/s	877.8 m/s	855.3 m/s	–
55000 kPa	962.8 m/s	946.6 m/s	922.4 m/s	898.7 m/s	876.4 m/s	–
60000 kPa	981.2 m/s	965.6 m/s	941.6 m/s	919 m/s	898.9 m/s	–
65000 kPa	999.5 m/s	983.3 m/s	959.9 m/s	938 m/s	916.7 m/s	–

Details	speed of sound [m/s]
273.12 K	574.5
280.72 K	535.2
